Laboratory results taken from patent US20020052365A1, “Selective anxiolytic therapeutic agents” (priority 2000, published 2002).
Entries after “also recorded” stand apart in the source; their conditions may differ.

Experiments:
[1] = test system: wild type, α2(H101R) and α3(H126R) mice; assay: Light/dark choice test; format: in vivo, mouse; conditions: for time in the lit area: sodium phenobarbital 15 mg/kg s.c., n=6-8
Experimental: (§1) FIG. 4A: Light/dark choice test. […] FIGS. 4B-C: Elevated plus-maze. […] FIG. 4D: Light/dark choice test. […] FIGS. 4E-F: Elevated plus-maze. […] Results are given as means ±S.E.M.+, P<0.05;++, P<0.01;+++P<0.001 (Dunnett's or Fisher's pair-wise post-hoc comparisons or Fisher's exact tests). […] The light-dark choice test was carried out as described infra with an illumination of 500 lux. […] The elevated plus-maze was performed as described infra under an indirect dim light illumination (<10 lux).
In a chamber containing an interconnected dark and lit (500 lux) box, the behavior of wild-type and mutant mice was tested for 5 min following the first entry into the dark compartment. […] The time spent in the lit box was recorded.
(§2) Female wild-type and mutant mice were raised in the test rooms and behaviorally tested during the dark period of the 1 2-hr light/dark cycle.

[2] = target: diazepam-insensitive [3H]Ro15-4513 binding sites (α4 and α6 GABAA receptors); assay: [3H]Ro15-4513 binding to diazepam-insensitive sites, wild type mouse brain; conditions: n=3
[3] = target: diazepam-insensitive [3H]Ro15-4513 binding sites in α2(H101R) mice; assay: [3H]Ro15-4513 binding to diazepam-insensitive sites, α2(H101R) mouse brain; conditions: n=3
[4] = target: diazepam-insensitive [3H]Ro15-4513 binding sites in α3(H126R) mice; assay: [3H]Ro15-4513 binding to diazepam-insensitive sites, α3(H126R) mouse brain; conditions: n=3
[5] = test system: GABAA receptors in hippocampal pyramidal cells from wild type mice; assay: Patch-clamp GABA responses in cultured hippocampal pyramidal cells, wild type; format: cell-based, mouse
Experimental: (§3) FIGS. 2A-C. […] The holding potential in the patch-clamp analysis was −60 mV the chloride concentration symmetrical. GABA was applied for 5 sec. Hippocampal neurons from E16.5 embryos were cultured for 10-14 days.

[6] = test system: GABAA receptors in hippocampal pyramidal cells from α2(H101R) mice; assay: Patch-clamp GABA responses in cultured hippocampal pyramidal cells, α2(H101R); format: cell-based, mouse
Experimental: as §3

[7] = test system: recombinant α2(H101R)β3γ2 receptors; conditions: recombinant α2(H101R)β3γ2 in HEK-293 cells; cited from earlier work
[8] = target: T1, α2 subunits from α2(H101R) mice (Mus musculus, UniProt P22723+P26048, H129R); assay: Diazepam affinity by [3H]Ro15-4513 binding after immunoprecipitation with α2 subunit-specific antiserum; conditions: immunoprecipitated
T1 construct: from tissue; host or cells: brain of α2(H101R) knock-in mice
T1 sequence (P26048 29-451 H129R): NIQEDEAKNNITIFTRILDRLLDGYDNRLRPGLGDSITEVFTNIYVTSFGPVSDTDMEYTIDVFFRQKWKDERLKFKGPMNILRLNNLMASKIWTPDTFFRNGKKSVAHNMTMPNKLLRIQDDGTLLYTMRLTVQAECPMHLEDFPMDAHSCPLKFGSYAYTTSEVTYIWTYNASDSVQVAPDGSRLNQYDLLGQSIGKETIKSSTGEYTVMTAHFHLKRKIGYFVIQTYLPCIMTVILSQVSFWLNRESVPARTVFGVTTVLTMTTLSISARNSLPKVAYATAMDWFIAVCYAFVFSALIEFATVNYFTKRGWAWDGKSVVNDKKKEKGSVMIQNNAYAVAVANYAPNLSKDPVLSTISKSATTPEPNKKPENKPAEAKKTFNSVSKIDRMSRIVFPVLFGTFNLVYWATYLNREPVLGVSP
T1 sequence (P22723 39-474): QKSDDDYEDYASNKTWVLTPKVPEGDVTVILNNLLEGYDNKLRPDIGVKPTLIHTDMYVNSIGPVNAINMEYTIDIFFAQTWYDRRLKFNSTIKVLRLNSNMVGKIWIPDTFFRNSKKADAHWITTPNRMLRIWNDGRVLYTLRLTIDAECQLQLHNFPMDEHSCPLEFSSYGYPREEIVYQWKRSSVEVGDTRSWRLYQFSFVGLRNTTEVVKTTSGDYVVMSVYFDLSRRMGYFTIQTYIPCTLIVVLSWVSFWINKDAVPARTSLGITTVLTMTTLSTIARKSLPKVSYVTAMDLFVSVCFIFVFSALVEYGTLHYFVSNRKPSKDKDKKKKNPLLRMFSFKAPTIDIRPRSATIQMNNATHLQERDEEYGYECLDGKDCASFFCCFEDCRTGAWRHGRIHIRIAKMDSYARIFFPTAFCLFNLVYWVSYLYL
T1 sequence (P63080 26-473 partner): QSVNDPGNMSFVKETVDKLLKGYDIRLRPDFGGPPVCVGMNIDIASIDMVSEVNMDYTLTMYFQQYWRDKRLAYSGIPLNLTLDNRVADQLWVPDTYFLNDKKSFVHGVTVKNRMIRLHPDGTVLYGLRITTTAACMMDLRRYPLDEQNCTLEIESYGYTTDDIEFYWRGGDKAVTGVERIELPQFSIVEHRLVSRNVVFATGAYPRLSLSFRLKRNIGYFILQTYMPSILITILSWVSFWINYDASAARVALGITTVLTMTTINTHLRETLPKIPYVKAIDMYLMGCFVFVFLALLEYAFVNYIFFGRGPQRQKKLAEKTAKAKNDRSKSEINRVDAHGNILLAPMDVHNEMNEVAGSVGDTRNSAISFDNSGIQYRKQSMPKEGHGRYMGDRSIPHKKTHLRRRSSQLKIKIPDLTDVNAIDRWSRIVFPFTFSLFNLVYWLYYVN
Text: (§4) To distinguish between the pharmacology of α2 and α3 receptor subtypes, two mouse lines were generated in which a point mutation was introduced into homologous positions of the α2 subunit gene [α2(H101R)]

[9] = target: T2, α3 subunits from α3(H126R) mice (Mus musculus, UniProt P22723+P26049, H154R); assay: Diazepam affinity by [3H]Ro15-4513 binding after immunoprecipitation with α3 subunit-specific antiserum; conditions: immunoprecipitated
T2 construct: from tissue; host or cells: brain of α3(H126R) knock-in mice
T2 sequence (P26049 29-492 H154R): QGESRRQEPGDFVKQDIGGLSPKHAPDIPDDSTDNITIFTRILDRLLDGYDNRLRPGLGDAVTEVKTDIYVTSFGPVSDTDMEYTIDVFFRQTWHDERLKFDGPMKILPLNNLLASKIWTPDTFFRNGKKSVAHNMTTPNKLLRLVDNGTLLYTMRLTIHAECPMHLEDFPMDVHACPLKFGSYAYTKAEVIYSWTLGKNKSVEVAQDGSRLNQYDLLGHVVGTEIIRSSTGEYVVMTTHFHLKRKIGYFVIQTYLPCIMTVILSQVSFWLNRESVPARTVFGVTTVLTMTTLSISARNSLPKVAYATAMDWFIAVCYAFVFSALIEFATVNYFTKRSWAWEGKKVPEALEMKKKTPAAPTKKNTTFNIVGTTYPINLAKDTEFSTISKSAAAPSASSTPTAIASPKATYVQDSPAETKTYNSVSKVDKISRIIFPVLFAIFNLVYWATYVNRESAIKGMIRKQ
T2 sequence (P22723 39-474): as the sequence (P22723 39-474) above
T2 sequence (P63080 26-473 partner): as the sequence (P63080 26-473 partner) above
Text: as §4

[10] = test system: wild type, α2(H101R) and α3(H126R) mice; assay: Locomotor activity; format: in vivo, mouse; conditions: diazepam 3, 10, 30 mg/kg p.o., 30 min prior
Experimental: (§5) V, vehicle. […] 31:733. Locomotor activity was automatically recorded for 30 min.

[11] = test system: wild type, α2(H101R) and α3(H126R) mice; assay: Pentylenetetrazole test; format: in vivo, mouse; conditions: pentylenetetrazole 120 mg/kg ip, diazepam 3, 10, 30 mg/kg p.o.
Experimental: as §5
Following pentylenetetrazole treatment (120 mg/kg ip), occurrence and/or latency to tonic seizures was recorded for a maximum of 10 minutes in wild type and mutant mice. […].

[12] = test system: wild type, α2(H101R) and α3(H126R) mice; assay: Elevated plus-maze; format: in vivo, mouse; conditions: diazepam 2 mg/kg p.o.
Experimental: as §1
Mice were placed on an elevated crossbar with two walled and two open arms under indirect dim illumination. […] The time spent on the open arms and the number of open arm entries was recorded for 5 minutes.
as §2

[13] = test system: wild type and α1-GABAA receptor (H101R) mice; assay: Withdrawal after chronic diazepam and flumazenil administration; conditions: chronic diazepam then flumazenil

## CCC1(c2ccccc2)C(=O)NC(=O)NC1=O [phenobarbital, Sodium phenobarbital]
[1]; wild type mice
  time in the lit area: 111.75 s
[1]; α2(H101R) mice
  time in the lit area: 110.9 s

## CCOC(=O)c1ncn2c1CN(C)C(=O)c1cc(N=[N+]=[N-])ccc1-2 [Ro15-4513]
[2]; α2 wild type controls
  Kd: 4.3 ± 0.8 nM
[2]; α3 wild type controls
  Kd: 4.9 ± 2.1 nM
[3]
  Kd: 8 ± 1.3 nM
[4]
  Kd: 6.5 ± 1.6 nM
[5]; Ro15-4513 1μM, n=13
  modulation of GABA response by Ro15-4513 (inverse agonistic action): −39±5.2%
[6]; Ro15-4513 1μM, n=23
  modulation of GABA response by Ro15-4513 (agonistic response): 11.7±7.5%
[7]
  efficacy of Ro15-4513: from inverse agonism to agonism

## CN1C(=O)CN=C(c2ccccc2)c2cc(Cl)ccc21 [diazepam]
[8]
  decrease in the affinity for diazepam: more than 1,000 fold
[9]
  decrease in the affinity for diazepam: more than 1,000 fold
[5]; diazepam 1μM, GABA 3 μM, n=18
  potentiation of GABA response by diazepam: 48.1±7.9%
[6]; diazepam 1μM, GABA 3 μM, n=29
  potentiation of GABA response by diazepam: 17.6±4.5%
[10]
  locomotor activity (sedative action): Dose-dependent inhibition of locomotor activity
[11]; wild type mice
  percentage of mice developing tonic convulsions (anticonvulsant action): Dose-dependent decrease of the percentage of mice developing tonic convulsions
[11]; α2(H101R) mice
  percentage of mice developing tonic convulsions (anticonvulsant action): not impaired; also recorded: Dose-dependent decrease of the percentage of mice developing tonic convulsions
[11]; α3(H126R) mice
  percentage of mice developing tonic convulsions (anticonvulsant action): not impaired; also recorded: Dose-dependent decrease of the percentage of mice developing tonic convulsions
[1]; wild type mice, diazepam 0.5, 1, 2 mg/kg p.o.
  time spent in the lit area: dose-dependently increased the time spent in the lit area
[1]; α2(H101R) mice, diazepam up to 2 mg/kg p.o.
  time spent in the lit area: did not increase the time spent in the lit area
[1]; α3(H126R) mice, diazepam 0.5, 1, 2 mg/kg p.o.
  time spent in the lit area: Dose-dependent increase in the time spent in the lit area
[12]; wild type mice
  entries on the open arms: increased
  percentage of time spent on the open arms: increased
[12]; α2(H101R) mice
  entries on the open arms: failed to increase
  percentage of time spent on the open arms: failed to increase
[12]; α3(H126R) mice
  entries on the open arms: increased
  percentage of time spent on the open arms: increased
[13]; wild type mice
  withdrawal symptoms (locomotor activity): exhibited withdrawal symptoms
[13]; α1-GABAA receptor (H101R) mice
  withdrawal symptoms (locomotor activity): greatly reduced
